Here are results for 13 compounds from patent US20250282799A1, “SUBSTITUTED PYRIDO[4,3-d]PYRIMIDINES AS KRAS MODULATORS” (Alterome Therapeutics, Inc., priority 2023, published 2025).

This assay concerns KRAS G12V dependent lung adenocarcinoma cell line, NCI-H441. The assay can be described thus: Cellular pERK (Thr202/Tyr204) FRET/HTRF assay. It is filed as cell-based. The settings on record: NCI-H441 cells. Summed up: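 IC50 reflects inhibition of ERK1/2 Thr202/Tyr204 phosphorylation, quantified by HTRF after a 1 hr treatment of KRAS G12V-driven NCI-H441 cells. DMSO served as negative control.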

[1] abbreviates: Homo sapiens, NCI-H441, cellular pERK (Thr202/Tyr204) HTRF.
Setting [2] is: cellular pERK (Thr202/Tyr204) HTRF.

Regarding `[2H]C([2H])(Oc1nc(N2CCOC[C@H]3[C@H](F)[C@H]32)c2cnc(-c3cc(N)cc4cccc(C#C)c34)c(F)c2n1)[C@@]12CCCN1[C@H](C)[C@H](F)C2` [Example 338, 5-ethynyl-4-(8-fluoro-2-(((2R,3R,7aS)-2-fluoro-3-methyltetrahydro-1H-pyrrolizin-7a(5H)-yl)methoxy-d2)-4-((1S,7S,8S)-8-fluoro-5-oxa-2-azabicyclo[5.1.0]octan-2-yl)pyrido[4,3-d]pyrimidin-7-yl)naphthalen-2-amine], the IC50 under setting [1] was less than 50 nM. With `[2H]C([2H])(Oc1nc(N2CCOC[C@@H]3[C@@H](Cl)[C@@H]32)c2cnc(-c3cc(N)cc4ccc(Cl)c(C#C)c34)c(F)c2n1)[C@@]12CCCN1[C@H](C)[C@H](F)C2` [Example 345, 6-chloro-4-(4-((1R,7R,8R)-8-chloro-5-oxa-2-azabicyclo[5.1.0]octan-2-yl)-8-fluoro-2-(((2R,3R,7aS)-2-fluoro-3-methyltetrahydro-1H-pyrrolizin-7a(5H)-yl)methoxy-d2)pyrido[4,3-d]pyrimidin-7-yl)-5-ethynylnaphthalen-2-amine], the IC50 under setting [1] lay in the range of 500 to 10000 nM. For `[2H]C([2H])(Oc1nc(N2CCOC[C@@H]3[C@@H](Cl)[C@@H]32)c2cnc(-c3cc(N)cc4cccc(C#C)c34)c(F)c2n1)[C@@]12CCCN1[C@H](C)[C@H](F)C2` [Example 346, 4-(4-((1R,7R,8R)-8-chloro-5-oxa-2-azabicyclo[5.1.0]octan-2-yl)-8-fluoro-2-(((2R,3R,7aS)-2-fluoro-3-methyltetrahydro-1H-pyrrolizin-7a(5H)-yl)methoxy-d2)pyrido[4,3-d]pyrimidin-7-yl)-5-ethynylnaphthalen-2-amine], the IC50 under setting [1] fell in the range of 500 to 10000 nM. As to `C#Cc1c(F)ccc2cc(N)cc(-c3ncc4c(N5CCOC[C@@H]6[C@@H](Cl)[C@@H]65)nc(OC[C@]56CC(=C)CN5CCC65CC5)nc4c3C)c12` [Example 347, 4-(4-((1R,7R,8R)-8-chloro-5-oxa-2-azabicyclo[5.1.0]octan-2-yl)-8-methyl-2-(((R)-6′-methylenetetrahydrospiro[cyclopropane-1,1′-pyrrolizin]-7a′(5′H)-yl)methoxy)pyrido[4,3-d]pyrimidin-7-yl)-5-ethynyl-6-fluoronaphthalen-2-amine], the IC50 under setting [1] lay within 500 to 10000 nM. `[2H]C([2H])(Oc1nc(N2CCOC[C@H]3[C@H](Cl)[C@H]32)c2cnc(-c3cc(N)cc4cccc(C#C)c34)c(F)c2n1)[C@@]12CCCN1[C@H](C)[C@H](F)C2` [Example 348, 4-(4-((1S,7S,8S)-8-chloro-5-oxa-2-azabicyclo[5.1.0]octan-2-yl)-8-fluoro-2-(((2R,3R,7aS)-2-fluoro-3-methyltetrahydro-1H-pyrrolizin-7a(5H)-yl)methoxy-d2)pyrido[4,3-d]pyrimidin-7-yl)-5-ethynylnaphthalen-2-amine]: the IC50 under setting [1] was less than 50 nM. Compound `[2H]C([2H])(Oc1nc(N2CCOC[C@H]3[C@H](F)[C@H]32)c2cc(C#N)c(-c3cc(N)cc4ccc(F)c(C#C)c34)c(F)c2n1)[C@@]12CCCN1C[C@H](F)C2` [Example 353, 7-(3-Amino-8-ethynyl-7-fluoronaphthalen-1-yl)-8-fluoro-4-((1S,7S,8S)-8-fluoro-5-oxa-2-azabicyclo[5.1.0]octan-2-yl)-2-(((2R,7aS)-2-fluorotetrahydro-1H-pyrrolizin-7a(5H)-yl)methoxy-d2)quinazoline-6-carbonitrile] displayed an IC50 under setting [2] of less than 50 nM. `[2H]C([2H])(Oc1nc(N2CCOC[C@H]3[C@H](F)[C@H]32)c2cc(Cl)c(-c3cc(N)cc4ccc(F)c(C#C)c34)c(F)c2n1)[C@@]12CCCN1C[C@H](F)C2` [Example 354, 4-(6-chloro-8-fluoro-4-((1S,7S,8S)-8-fluoro-5-oxa-2-azabicyclo[5.1.0]octan-2-yl)-2-(((2R,7aS)-2-fluorotetrahydro-1H-pyrrolizin-7a(5H)-yl)methoxy-d2)quinazolin-7-yl)-5-ethynyl-6-fluoronaphthalen-2-amine] came in with an IC50 under setting [2] of less than 50 nM. On the same count and under the same terms, in the case of `[2H]C([2H])(Oc1nc(N2CCOC[C@H]3[C@H](F)[C@H]32)c2cc(F)c(-c3cc(N)cc4ccc(F)c(C#C)c34)c(F)c2n1)[C@@]12CCCN1C[C@H](F)C2` [Example 355, 4-(6,8-difluoro-4-((1S,7S,8S)-8-fluoro-5-oxa-2-azabicyclo[5.1.0]octan-2-yl)-2-(((2R,7aS)-2-fluorotetrahydro-1H-pyrrolizin-7a(5H)-yl)methoxy-d2)quinazolin-7-yl)-5-ethynyl-6-fluoronaphthalen-2-amine] it was less than 50 nM. `C#Cc1c(F)ccc2cc(N)cc(-c3ncc4c(N5CCOC[C@H]6[C@H](F)[C@H]65)nc(OC[C@]56C/C(=C\F)CN5CCC65CC5)nc4c3F)c12` [Example 362, 5-Ethynyl-6-fluoro-4-(8-fluoro-4-((1S,7S,8S)-8-fluoro-5-oxa-2-azabicyclo[5.1.0]octan-2-yl)-2-(((R,E)-6′-(fluoromethylene)tetrahydrospiro[cyclopropane-1,1′-pyrrolizin]-7a′(5′H)-yl)methoxy)pyrido[4,3-d]pyrimidin-7-yl)naphthalen-2-amine] came in with an IC50 under setting [1] of less than 50 nM. Under setting [1], `C#Cc1c(F)ccc2cc(N)cc(-c3ncc4c(N5CCOC[C@H]6[C@H](F)[C@H]65)nc(OC[C@]56C/C(=C/F)CN5CCC65CC5)nc4c3F)c12` [Example 363, 5-Ethynyl-6-fluoro-4-(8-fluoro-4-((1S,7S,8S)-8-fluoro-5-oxa-2-azabicyclo[5.1.0]octan-2-yl)-2-(((R,Z)-6′-(fluoromethylene)tetrahydrospiro[cyclopropane-1,1′-pyrrolizin]-7a′(5′H)-yl)methoxy)pyrido[4,3-d]pyrimidin-7-yl)naphthalen-2-amine] yielded an IC50 of less than 50 nM. On to `C#Cc1c(F)ccc2cc(N)cc(-c3ncc4c(N5CCOC[C@H]6[C@H](F)[C@H]65)nc(OC[C@]56C[C@@H](F)CN5CCC6=C)nc4c3F)c12` [Example 364, 5-ethynyl-6-fluoro-4-(8-fluoro-2-(((6R,7aR)-6-fluoro-1-methylenetetrahydro-1H-pyrrolizin-7a(5H)-yl)methoxy)-4-((1S,7S,8S)-8-fluoro-5-oxa-2-azabicyclo[5.1.0]octan-2-yl)pyrido[4,3-d]pyrimidin-7-yl)naphthalen-2-amine], for which the IC50 under setting [1] was less than 50 nM. On the same count and under the same terms, in the case of `[2H]C([2H])(Oc1nc(N2CCOC[C@H]3[C@H](Cl)[C@H]32)c2cnc(-c3cc(N)cc4ccc(C)c(C#C)c34)c(F)c2n1)[C@@]12CCCN1[C@H](C)[C@H](F)C2` [Example 366, 4-(4-((1S,7S,8S)-8-chloro-5-oxa-2-azabicyclo[5.1.0]octan-2-yl)-8-fluoro-2-(((2R,3R,7aS)-2-fluoro-3-methyltetrahydro-1H-pyrrolizin-7a(5H)-yl)methoxy-d2)pyrido[4,3-d]pyrimidin-7-yl)-5-ethynyl-6-methylnaphthalen-2-amine] it was less than 50 nM; in that of `C=C1CN2CCC[C@@]2(COc2nc(N3CCCC[C@H]4[C@H](F)[C@H]43)c3cnc(-c4cc(N)cc(Cl)c4C(F)(F)F)c(F)c3n2)C1` [Example 367, 3-chloro-5-(8-fluoro-4-((1S,7R,8S)-8-fluoro-2-azabicyclo[5.1.0]octan-2-yl)-2-(((S)-2-methylenetetrahydro-1H-pyrrolizin-7a(5H)-yl)methoxy)pyrido[4,3-d]pyrimidin-7-yl)-4-(trifluoromethyl)aniline], less than 50 nM.
